From patent US11466010B2, “Toll-like receptor 8 (TLR8) specific antagonists and methods of making and uses thereof” (The Regents of the University of Colorado, a body corporate, priority 2017, dated 2022)

Tests used:
TLR7 = target: T1, TLR7 (Homo sapiens, UniProt Q9NYK1); experiment: SEAP assay in HEK-Blue TLR7 cells activated by R848; format: cell-based; conditions: below approx. micromolar concentration
T1 construct: host or cells: HEK-Blue TLR7 cells
T1 sequence (Q9NYK1 27-1049): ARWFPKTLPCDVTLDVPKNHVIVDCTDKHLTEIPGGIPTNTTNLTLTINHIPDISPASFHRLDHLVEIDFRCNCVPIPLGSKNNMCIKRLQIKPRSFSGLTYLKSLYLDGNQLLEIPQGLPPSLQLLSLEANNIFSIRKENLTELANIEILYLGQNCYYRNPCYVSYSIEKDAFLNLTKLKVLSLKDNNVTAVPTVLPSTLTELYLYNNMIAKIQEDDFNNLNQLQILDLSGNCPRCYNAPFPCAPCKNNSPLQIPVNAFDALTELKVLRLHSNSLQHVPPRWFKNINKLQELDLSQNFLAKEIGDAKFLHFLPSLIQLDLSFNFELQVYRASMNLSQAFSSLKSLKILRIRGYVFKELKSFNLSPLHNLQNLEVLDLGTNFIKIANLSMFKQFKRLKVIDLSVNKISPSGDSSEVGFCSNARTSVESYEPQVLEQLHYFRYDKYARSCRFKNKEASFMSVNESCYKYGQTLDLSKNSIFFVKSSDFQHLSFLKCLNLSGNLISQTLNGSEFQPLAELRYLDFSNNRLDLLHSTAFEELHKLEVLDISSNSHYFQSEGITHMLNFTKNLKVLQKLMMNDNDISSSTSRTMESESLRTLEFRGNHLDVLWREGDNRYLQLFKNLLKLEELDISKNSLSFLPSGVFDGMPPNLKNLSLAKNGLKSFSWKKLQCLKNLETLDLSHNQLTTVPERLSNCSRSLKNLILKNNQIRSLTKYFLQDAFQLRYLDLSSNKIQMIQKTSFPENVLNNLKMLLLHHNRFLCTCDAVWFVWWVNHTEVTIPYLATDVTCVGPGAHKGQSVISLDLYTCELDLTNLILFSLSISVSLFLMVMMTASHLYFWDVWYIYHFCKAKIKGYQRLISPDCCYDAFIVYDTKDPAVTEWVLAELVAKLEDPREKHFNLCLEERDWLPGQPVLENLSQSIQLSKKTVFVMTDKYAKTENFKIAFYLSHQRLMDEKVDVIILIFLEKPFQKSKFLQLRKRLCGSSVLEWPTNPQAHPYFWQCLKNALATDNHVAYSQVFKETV
Method: TLR selectivity assay: The selectivity of sample compound was tested using SEAP reporter assay in HEK-Blue overexpressing various TLRs. Plates were set up in same manner as described in SEAP assay above.

mouse TLR9 = target: T2, mouse TLR9 (Mus musculus, UniProt Q9EQU3); experiment: IL-12p40 production in splenocytes from hTLR8tg/TLR7-KO mice, TLR9 agonist 1018; format: cell-based; conditions: 1018 7.1 ug/mL, 48 hours
T2 construct: endogenous in cells; host or cells: primary splenocytes from hTLR8tg/TLR7-KO mice
T2 sequence (Q9EQU3 26-1032): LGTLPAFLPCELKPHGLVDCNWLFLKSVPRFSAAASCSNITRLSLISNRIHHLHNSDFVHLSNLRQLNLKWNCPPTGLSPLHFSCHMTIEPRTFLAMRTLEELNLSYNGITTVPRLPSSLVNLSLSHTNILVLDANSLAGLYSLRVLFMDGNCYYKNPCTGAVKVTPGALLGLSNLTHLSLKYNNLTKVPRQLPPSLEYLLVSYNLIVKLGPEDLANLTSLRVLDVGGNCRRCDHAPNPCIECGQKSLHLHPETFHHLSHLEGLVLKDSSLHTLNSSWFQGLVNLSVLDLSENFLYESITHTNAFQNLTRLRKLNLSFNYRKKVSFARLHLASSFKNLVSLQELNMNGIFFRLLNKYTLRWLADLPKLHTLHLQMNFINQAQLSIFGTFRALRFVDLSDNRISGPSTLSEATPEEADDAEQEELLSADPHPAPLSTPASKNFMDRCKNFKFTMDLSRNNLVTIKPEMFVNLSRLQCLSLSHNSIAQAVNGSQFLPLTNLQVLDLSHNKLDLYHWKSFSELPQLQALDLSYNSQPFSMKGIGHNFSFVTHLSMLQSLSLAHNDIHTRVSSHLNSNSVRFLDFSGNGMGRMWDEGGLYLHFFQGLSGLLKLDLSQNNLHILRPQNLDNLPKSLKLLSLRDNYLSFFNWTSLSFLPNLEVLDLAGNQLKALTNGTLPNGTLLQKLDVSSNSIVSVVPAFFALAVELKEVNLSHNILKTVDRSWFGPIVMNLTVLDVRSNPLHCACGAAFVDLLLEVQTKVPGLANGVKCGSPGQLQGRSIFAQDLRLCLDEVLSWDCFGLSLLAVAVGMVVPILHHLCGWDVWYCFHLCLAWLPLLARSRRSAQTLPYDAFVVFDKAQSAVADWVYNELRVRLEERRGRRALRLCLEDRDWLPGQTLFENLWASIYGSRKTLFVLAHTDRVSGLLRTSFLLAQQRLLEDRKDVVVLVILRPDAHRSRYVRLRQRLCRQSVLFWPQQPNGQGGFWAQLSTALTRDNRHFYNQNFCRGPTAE
Method: Activity on primary mouse splenocytes: To assess TLR8 and TLR9 activity, spleens were isolated from TLR7 knock-out mice harboring a human TLR8 transgene (hTLR8tg/TLR7-KO). Splenocytes were prepared by dissociation through a cell strainer and removal of red blood cells with lysis buffer. Splenocytes were incubated with a dilution series of compounds and a constant amount of a TLR8 agonist (RNA oligonucleotide ORN8L) or a TLR9 agonist (CpG-containing phosphorothioate DNA oligonucleotide 1018). After 48 hours, culture supernatants were collected and analyzed for IL-12p40 production. Curves represent activity from a single spleen.

| Structure (SMILES) | effect on TLR7 (TLR7) | activity against mouse TLR9 (mouse TLR9) |
| --- | --- | --- |
| COc1ccc2c(-c3ccc(O)c(C)c3)ccnc2c1 [Compound 11a, 2-Methyl-4-(7-methoxyl-4-quinolinyl)-phenol] | not affected | no activity |
| Cc1cc(-c2ccnc3cc(O)ccc23)ccc1O [Compound 11b, 2-Methyl-4-(7-hydroxyl-4-quinolinyl)-phenol] | not affected | no activity |
